Source: ChEMBL document CHEMBL5727850, “Haloallylamine indole and azaindole derivative inhibitors of lysyl oxidases and uses thereof” (2020)

Assay: Inhibition Assay: LOX and LOXL2: Lysyl oxidase (LOX) is an extracellular copper dependent enzyme which oxidizes peptidyl lysine and hydroxylysine residues in collagen and lysine residues in elastin to produce peptidyl alpha-aminoadipic-delta-semialdehydes. […] There are five LOX family members; these are LOX, LOXL1, LOXL2, LOXL3 and LOXL4. LOX and LOXL family members can be acquired as recombinant active proteins from commercial sources, or extracted from animal tissues like bovine aorta, tendons, pig skin; or prepared from cell cultures. The inhibitory effects of the compounds of the present invention were tested against the given LOX-LOXL preparation using a high-throughput coupled colorimetric method (Holt A. and Palcic M., A peroxidase-coupled continuous absorbance plate-reader assay for flavin monoamine oxidases, copper-containing amine oxidases and related enzymes. Nat. Protoc. 2006; 1: 2498-2505). The assay was developed using either 384 or 96 well format. Briefly, in a standard 384 well plate assay 25 μL of a dilution of any of the isoenzymes and orthologues in 1.2 M urea, 50 mM sodium borate buffer (pH 8.2) were added into each well in the presence of 1 μM mofegiline and 0.5 mM pargyline (to inhibit SSAO and MAO-B and MAO-A, respectively). […]

SMILES	IC50 [nM]
Cc1c(-c2cccc(S(=O)(=O)N(C)C)c2)c2nc(C(=O)N(C)C)ccc2n1C/C(F)=C/CN	> 300
Cc1c(-c2cccc(S(=O)(=O)N(C)C)c2)c2cc(C(=O)N(C)C)ccc2n1C/C(F)=C/CN	> 300
